Source: US20240400547A1, “2,6-PIPERIDINEDIONE COMPOUND AND APPLICATION THEREOF” (MEDSHINE DISCOVERY INC., priority 2021, published 2024)
Structures can show the parent of a compound that is named as a salt. Where two headings read alike, the source gives them in different places.

Assays:
[1] = Pharmacokinetic evaluation in mice; format: in vivo, C57BL/6N or CD-1 male mice; conditions: for Vd / half-life / clearance / bioavailability: male, plasma; for Vd: read-out: Apparent volume of distribution; for half-life: read-out: Elimination half-life (converted); for clearance: read-out: Plasma clearance rate; for bioavailability: po, read-out: Bioavailability F
Description: In this study, C57BL/6N or CD-1 male mice were selected as test animals, and LC/MS/MS method was used to quantify plasma concentrations of the test compound intravenously injected or gavage to mice at different time points, so as to evaluate the pharmacokinetic profile of the compounds of the present disclosure in mice.
C57BL/6N mice (male, 20 to 30 g, 7 to 10 weeks old, Beijing VitalRiver) or CD-1 mice (male, 20 to 35 g, 7 to 10 weeks old, Beijing VitalRiver).
• The test compounds, either as clear or suspension solutions, were administered intravenously through the tail vein to C57BL/6N mice or CD-1 mice (either fasted overnight or fed) (vehicle: 10% DMSO/10% solutol/80% H2O or 5% DMSO/10% solutol/85% H2O), or intragastrically administered to C57BL/6N mice or CD-1 mice (either fasted overnight or fed). For intravenous injection, blood 50 μL was collected via the cheek vein puncture at 0 h (pre-administration), 0.083, 0.25, 0.5, 1, 2, 4, 6, 8, and 24 h after administration, and placed in an anticoagulant tube added with heparin sodium. The mixture was thoroughly vortexed and mixed, and centrifuged at 6000 g for 3 minutes at 2-8° C. For oral administration, blood was collected via the cheek vein puncture at 0 h (pre-administration), 0.083, 0.25, 0.5, 1, 2, 4, 6, 8, and 24 h after administration, and placed in an anticoagulant tube added with heparin sodium. The mixture was thoroughly vortexed and mixed, and centrifuged at 6000 g for 3 minutes at 2-8° C. Plasma concentrations were determined by LC-MS/MS method, and relevant pharmacokinetic parameters were calculated using Phoenix WinNonlin8.2.0 pharmacokinetic software with non-compartmental model linear-log trapezoidal method.
• The test compounds, as clear solutions, were administered intravenously through the tail vein to CD-1 mice (fasted overnight) (vehicle: 10% DMSO/10% solutol/80% H2O or 5% DMSO/10% solutol/85% H2O), or intragastrically administered to CD-1 mice (fasted overnight). For intravenous injection, blood was collected via the saphenous vein puncture at 0 h (pre-administration), 0.083, 0.25, 0.5, 1, 2, 4, 8, and 24 h after administration, and placed in a EDTA-K2 anticoagulant tube. The mixture was thoroughly vortexed and mixed, and centrifuged at 3200 g for 10 minutes at 4° C. to obtain plasma. For oral administration, blood was collected via the saphenous vein puncture at 0 h (pre-administration), 0.083, 0.25, 0.5, 1, 2, 4, 8, and 24 h after administration, and placed in a EDTA-K2 anticoagulant tube. The mixture was thoroughly vortexed and mixed, and centrifuged at 3200 g for 10 minutes at 4° C. to obtain plasma. Plasma concentrations were determined by LC-MS/MS method, and relevant pharmacokinetic parameters were calculated using Phoenix WinNonlin 6.3 pharmacokinetic software with non-compartmental model linear-log trapezoidal method.

[2] = test system: TMD-8; test: Antiproliferative effect in lymphoma cell line TMD-8 (CellTiter-Glo); format: cell-based; conditions: TMD-8, 5 days; for IC50: Homo sapiens, TMD8, 120 h
Description: Experimental purpose: The experiment aims to evaluate the inhibitory effects of the test compounds on cell proliferation in the diffuse large B-cell lymphoma (DLBCL) cell lines OCI-LY10 and TMD-8.
The tumor cell lines were cultured in a 37° C., 5% CO2 incubator under the above culture conditions. Regular passage, and cells in logarithmic growth phase were taken for plating.
• (1) Cells were stained with trypan blue and viable cells were counted. • (2) The cell concentration was adjusted to an appropriate concentration.
• (3) 100 μL of cell suspension per well was added to the culture plate as shown above. • (4) The culture plate was cultured overnight in a 37° C., 5% CO2 incubator with 100% relative humidity.
Preparation of stock solution storage plate with 1000 times the initial concentration of the compound: The compound was serially diluted with DMSO from the highest concentration to the lowest concentration. The solution was prepared as needed each time.
4. Preparation of 1000× Compound Working Solution and Cell Treatment with Compounds • (1) Preparation of the working solution with 5 times the initial concentration of the compound: For 3-fold dilution of the compound, 30 μL of the compound from a stock solution at 1000-fold concentration was taken, and 20 μL of DMSO was added to the subsequent wells. Then, 10 μL was transferred from one concentration to the next in sequence. For 5-fold dilution of the compound, 30 μL of the compound from a stock solution at 1000-fold concentration was taken, and 24 μL of DMSO was added to the subsequent wells. Then, 6 μL was transferred from one concentration to the next in sequence. 20 μL of DMSO was added to the vehicle control. The 1000-fold concentrated compound was diluted 200 times with culture medium, i.e., 1 μL of the 1000-fold diluted compound is added to 199 μL of culture medium, and the mixture was homogenized using a pipette. • (2) Compound addition: 25 μL of the 5-fold compound solution was added to the cell culture plate. • (3) The 96-well cell plate was returned to the incubator to culture OCI-LY10 (with either 3-fold or 5-fold dilution, incubated with compounds added for 5 days) and TMD-8 (with either 3-fold or 5-fold dilution, incubated with compounds added for 5 days).
The following steps were performed according to the instructions of Promega CellTiter-Glo luminescent cell viability assay kit (Promega-G7573). • (1) CellTiter-Glo buffer was melted and brought to room temperature. • (2) CellTiter-Glo substrate was brought to room temperature. • (3) CellTiter-Glo working solution was prepared by adding 10 mL of CellTiter-Glo buffer to a vial of CellTiter-Glo substrate to dissolve the substrate. • (4) The mixture was slowly vortexed and shaken to be fully dissolved. • (5) The cell culture plate was taken out and left for 30 minutes to equilibrate to room temperature. • (6) 60 μL of CellTiter-Go working solution was added per well (equal to half the volume of cell culture medium per well). The cell plate was wrapped in aluminum foil to be protected from light. • (7) The culture plate was shaken on an orbital shaker for 2 minutes to induce cell lysis. • (8) The culture plate was left at room temperature for 10 minutes to stabilize the luminescent signal. • (9) The luminescent signal was detected on a 2104 EnVision plate reader.
The inhibition rate (IIR) of the test compound was calculated using the following formula: IR (%)=(1−RLU compound/RLU vehicle control)*100%. The inhibition rates of compounds at different concentrations were calculated in Excel, and then GraphPad Prism software was used to plot inhibition curves and calculate relevant parameters, including minimum inhibition rate, maximum inhibition rate, and IC50.

[3] = intragastric administration 10 mg/kg, experimental operation B, fasted overnight
[4] = intravenous injection 2 mg/kg, experimental operation B, fasted overnight
[5] = CD-1, mouse, intravenous injection 2 mg/kg, experimental operation B, fasted overnight
[6] = CD-1, mouse, intragastric administration 10 mg/kg, experimental operation B, fasted overnight
[7] = intragastric administration 10 mg/kg, experimental operation A, fed
[8] = intragastric administration 10 mg/kg, experimental operation A, fasted overnight
[9] = mouse, intravenous injection 2 mg/kg, experimental operation A, fasted overnight

Row | SMILES | Area under drug-time curve (0-inf) [1, 3] | Peak concentration [1, 3] | Time to peak concentration [1, 3] | Area under drug-time curve (0-inf) [1, 4] | Vd [1, 5] | half-life [1, 5] | clearance [1, 5] | bioavailability [1, 6] | IC50 [2] | Maximum inhibition rate [2] | further results
1 | O=C1CCC(c2coc3cc(NC(=O)CN4CCN(C[C@H]5CC[C@H](N6CC(NC(=O)c7coc(-c8ccnc(NCC9CC9)c8)n7)C(C(F)F)N6)CC5)CC4)ccc23)C(=O)N1 (some centres unmarked) [Hydrochloride of WX002] | 2.00 µM·h | 0.64 µM | 1.00 h |  |  |  |  |  | 92 nM | 83.31% | 
2 | O=C1CCC(c2noc3ccc4c(NC(=O)CN5CCN(C[C@H]6CC[C@H](n7cc(NC(=O)c8coc(-c9ccnc(NCC%10CC%10)c9)n8)c(C(F)F)n7)CC6)CC5)cccc4c23)C(=O)N1 (some centres unmarked) [Hydrochloride of WX014] |  |  |  |  |  |  |  |  | 10.3 nM | 89.86% | Area under drug-time curve (0-inf) [1, 7]: 4.47 µM·h; Peak concentration [1, 7]: 0.54 µM; Time to peak concentration [1, 7]: 1.00 h; Area under drug-time curve (0-inf) ([1]; intravenous injection 2 mg/kg, experimental operation A, fed): 5.40 µM·h
3 | O=C1CCC(c2coc3ccc4c(NC(=O)CN5CCN(C[C@H]6CC[C@H](n7cc(NC(=O)c8coc(-c9ccnc(NCC%10CC%10)c9)n8)c(C(F)F)n7)CC6)CC5)cccc4c23)C(=O)N1 (some centres unmarked) [Trifluoroacetate of WX011] |  |  |  |  |  |  |  |  | 17 nM | 94.65% | Area under drug-time curve (0-inf) [1, 8]: 5.00 µM·h; Peak concentration [1, 8]: 0.45 µM; Time to peak concentration [1, 8]: 1.67 h; Area under drug-time curve (0-inf) ([1]; intravenous injection 2 mg/kg, experimental operation A, fasted overnight): 15.31 µM·h; Vd [1, 9]: 1.8 L/kg; half-life [1, 9]: 567 min; clearance [1, 9]: 2.76 mL/min/kg; bioavailability ([1]; mouse, intragastric administration 10 mg/kg, experimental operation A, fasted overnight): 6.53%

Further lines, with some results ahead:

Row | Area under drug-time curve (0-inf) [1, 3] | Peak concentration [1, 3] | Time to peak concentration [1, 3] | Area under drug-time curve (0-inf) [1, 4] | Vd [1, 5] | half-life [1, 5] | clearance [1, 5] | bioavailability [1, 6] | IC50 [2] | SMILES | Maximum inhibition rate [2] | further results
4 | 5.07 µM·h | 0.65 µM | 4.00 h | 3.17 µM·h | 2.59 L/kg | 139 min | 12.2 mL/min/kg | 31.9% |  | CC(C)(O)c1cc2nc(C3CCC(CN4CCN(CC(=O)Nc5cccc6c5ccc5onc(C7CCC(=O)NC7=O)c56)CC4)CC3)sc2cc1NC(=O)c1cccc(C(F)(F)F)n1 (centres unmarked) [Formate of WX017] |  | 
5 |  |  |  |  |  |  |  |  | 8.65 nM | CC(C)(O)c1cc2nc([C@H]3CC[C@H](CN4CCN(CC(=O)Nc5ccc6c(C7CCC(=O)NC7=O)noc6c5)CC4)CC3)sc2cc1NC(=O)c1cccc(C(F)(F)F)n1 (some centres unmarked) [Formate of WX026] | 99.92% | 
6 | 1.01 µM·h | 0.09 µM | 6.00 h | 3.06 µM·h | 4.39 L/kg | 313 min | 11.8 mL/min/kg | 6.59% | 12.8 nM | O=C1CCC(c2noc3ccc4c(NC(=O)C(F)(F)C5CCN(CC6CCC(n7cc(NC(=O)c8coc(-c9ccnc(NCC%10CC%10)c9)n8)c(C(F)F)n7)CC6)CC5)cccc4c23)C(=O)N1 (centres unmarked) [Hydrochloride of WX018] | 99.53% | 
